Assay results as given in article PMC6934184, “Selective DNA-PKcs inhibition extends the therapeutic index of localized radiotherapy and chemotherapy” (The Journal of Clinical Investigation, 2019).

Biological target: T1, LIMK2 (Homo sapiens, UniProt P53671)
T1 construct: purchased Thermo Fisher Scientific (Life Technologies) SelectScreen
Experiment: SelectScreen LanthaScreen
Format: binding
Conditions: read-out: % displacement
Method in brief: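 NU5455 was profiled across the SelectScreen Broad panel of kinase activity and binding assays. Z'LYTE reactions such as CSF1R ran at apparent Km ATP, while the Adapta CAMK1 assay used ATP listed as 10. Values are given as percent.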

T1 sequence (P53671 whole entry): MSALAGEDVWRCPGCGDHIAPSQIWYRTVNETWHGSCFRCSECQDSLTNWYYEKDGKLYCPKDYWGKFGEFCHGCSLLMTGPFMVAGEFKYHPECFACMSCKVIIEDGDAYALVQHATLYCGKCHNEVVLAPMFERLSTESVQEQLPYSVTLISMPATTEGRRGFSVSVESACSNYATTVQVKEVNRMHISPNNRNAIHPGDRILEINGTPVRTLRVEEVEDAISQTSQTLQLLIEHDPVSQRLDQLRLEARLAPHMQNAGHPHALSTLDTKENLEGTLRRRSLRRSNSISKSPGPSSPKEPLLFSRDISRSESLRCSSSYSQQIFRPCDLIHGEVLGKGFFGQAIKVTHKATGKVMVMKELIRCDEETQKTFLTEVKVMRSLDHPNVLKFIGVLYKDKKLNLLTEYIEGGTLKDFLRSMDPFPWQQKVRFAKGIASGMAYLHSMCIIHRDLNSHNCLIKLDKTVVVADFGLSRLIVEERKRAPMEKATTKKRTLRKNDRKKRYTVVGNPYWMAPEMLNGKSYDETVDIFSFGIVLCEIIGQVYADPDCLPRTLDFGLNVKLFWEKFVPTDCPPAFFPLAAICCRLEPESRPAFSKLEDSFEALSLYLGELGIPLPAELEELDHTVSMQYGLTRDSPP

CN(C(=O)CN1CCOCC1)c1ccc2sc3c(-c4cccc5c(=O)cc(N6CC7CCC(C6)O7)oc45)cccc3c2c1 [NU5455]
inhibition at 1 µM: 1.4%
